Assay results taken from ChEMBL document CHEMBL1130825, “Novel D-ring analogues of podophyllotoxin as potent anti-cancer agents” (1998).

How the values were obtained:
COLO 205 = experiment: In vitro cytotoxicity against human colon cancer COLO 205 cell line; type: functional
KM12 = experiment: In vitro cytotoxicity against human colon cancer KM 12 cell line; type: functional
HCT-116 = experiment: In vitro cytotoxicity against human colon cancer HCT 116 cell line; type: functional
HT-29 = experiment: In vitro cytotoxicity against human colon cancer HT 29 cell line; type: functional
HCT-15 = experiment: In vitro cytotoxicity against human colon cancer HCT 15 cell line; type: functional
HCC 2998 = experiment: In vitro cytotoxicity against human colon cancer HCC 2998 cell line; type: functional
BT-549 = experiment: In vitro cytotoxicity against human breast cancer BT-549 cell line; type: functional
M14 [1] = experiment: in vitro cytotoxicity against M-14 cancer cell line; type: functional; conditions: Homo sapiens
SK-OV-3 [2] = experiment: in vitro cytotoxicity against SKOV3 cancer cell line; type: functional; conditions: Homo sapiens
MDA-MB-435 = experiment: In vitro cytotoxicity against human breast cancer MDA-MB 435 cell line; type: functional
Hs-578T = experiment: In vitro cytotoxicity against human breast cancer Hs 578.T cell line; type: functional
MDA-N = experiment: In vitro cytotoxicity against human breast cancer MDA-N cell line; type: functional
MDA-MB-231 = experiment: In vitro cytotoxicity against human breast cancer MDA-MB 231 cell line; type: functional
A498 [3] = experiment: in vitro cytotoxicity against A 498 cancer cell line; type: functional; conditions: Homo sapiens
MCF7 [4] = experiment: In vitro cytotoxicity against human breast cancer MCF-7 cell line; type: functional
SW-620 = experiment: In vitro cytotoxicity against human colon cancer SW 620 cell line; type: functional
DU-145 [5] = experiment: in vitro cytotoxicity against DU-145 cancer cell line; type: functional; conditions: Homo sapiens
[6] = In vitro cytotoxicity against human breast cancer MCF-7 ADR cell line; type: functional; conditions: MCF7
SK-OV-3 [7] = experiment: Compound was evaluated for in vitro cytotoxicity against SKOV3 cancer cell line; type: functional; conditions: Homo sapiens
MCF7 [8] = experiment: in vitro cytotoxicity against MCF-7 ADR cancer cell line; type: functional; conditions: Homo sapiens
NCI-H522 = experiment: Compound was evaluated for in vitro cytotoxicity against H522 cancer cell line; conditions: Homo sapiens
A498 [9] = experiment: Compound was evaluated for in vitro cytotoxicity against A 498 cancer cell line; type: functional; conditions: Homo sapiens
DU-145 [10] = experiment: Compound was evaluated for in vitro cytotoxicity against DU-145 cancer cell line; type: functional; conditions: Homo sapiens
MCF7 [11] = experiment: Compound was evaluated for in vitro cytotoxicity against MCF-7 ADR cancer cell line; type: functional; conditions: Homo sapiens
M14 [12] = experiment: Compound was evaluated for in vitro cytotoxicity against M-14 cancer cell line; type: functional; conditions: Homo sapiens
MCF7 [13] = experiment: Compound was evaluated for in vitro cytotoxicity data against human breast cancer MCF-7 ADR cell line; type: functional

SMILES	GI50 (COLO 205)	GI50 (KM12)	GI50 (HCT-116)	GI50 (HT-29)	GI50 (HCT-15)	GI50 (HCC 2998)	GI50 (BT-549)	GI50 (MDA-MB-435)	GI50 (Hs-578T)	GI50 (MDA-N)	GI50 (MDA-MB-231)	GI50 (MCF7 [4])	GI50 (SW-620)	GI50 [6]	further results
COC(=O)[C@@H]1C(c2cc(OC)c(OC)c(OC)c2)c2cc3c(cc2[C@@H]2OC(=O)OC[C@@H]12)OCO3 (some centres not stated)	2 µM	70 µM	> 30 µM	> 30 µM	10 µM	20 µM	–	–	–	–	–	–	–	–	–
CCOC(=O)[C@@H]1C(c2cc(OC)c(OC)c(OC)c2)c2cc3c(cc2[C@@H]2OC(=O)OC[C@@H]12)OCO3 (some centres not stated)	1.5 µM	6 µM	0.09 µM	2 µM	0.2 µM	8 µM	–	–	–	–	–	–	–	–	–
CCOC(=O)[C@@H]1[C@H](c2cc(OC)c(O)c(OC)c2)c2cc3c(cc2[C@@H]2OC(=O)OC[C@@H]12)OCO3	30 µM	0.2 µM	0.6 µM	0.2 µM	0.4 µM	1.5 µM	–	–	–	–	–	–	–	–	–
CCOC(=O)[C@@H]1[C@H](c2cc(OC)c(O)c(OC)c2)c2cc3c(cc2[C@H](O)[C@H]1CO)OCO3	1.16 µM	0.78 µM	1.7 µM	0.88 µM	2.07 µM	1.3 µM	4.91 µM	0.84 µM	1.2 µM	1.06 µM	6.78 µM	2.17 µM	1.17 µM	–	GI50 (M14 [1]): 2.1 µM; GI50 (SK-OV-3 [2]): 3.35 µM; GI50 (A498 [3]): 1.1 µM; GI50 (DU-145 [5]): 1.63 µM
CCCCOC(=O)[C@@H]1[C@H](c2cc(OC)c(OC)c(OC)c2)c2cc3c(cc2[C@H](O)[C@H]1CO)OCO3	1.9 µM	1.86 µM	3.7 µM	2.5 µM	2 µM	1.8 µM	> 30 µM	1.6 µM	–	11.5 µM	> 30 µM	2 µM	2.2 µM	5.6 µM	–
CCOC(=O)[C@@H]1[C@H](c2cc(OC)c(OC)c(OC)c2)c2cc3c(cc2[C@H](O)[C@H]1CO)OCO3	14 µM	8.4 µM	24 µM	17 µM	13 µM	14 µM	> 30 µM	4.4 µM	27 µM	3.5 µM	18 µM	23 µM	26 µM	14 µM	GI50 (M14 [1]): 14.9 µM; GI50 (SK-OV-3 [7]): 29.9 µM; GI50 (A498 [3]): > 30 µM; GI50 (MCF7 [8]): 14.3 µM; GI50 (DU-145 [5]): > 30 µM
COC(=O)[C@@H]1[C@H](c2cc(OC)c(O)c(OC)c2)c2cc3c(cc2[C@@H]2OC(=O)OC[C@@H]12)OCO3	0.2 µM	0.4 µM	0.5 µM	> 30 µM	0.4 µM	1 µM	–	–	–	–	–	–	–	–	–
COC(=O)[C@@H]1[C@H](c2cc(OC)c(O)c(OC)c2)c2cc3c(cc2[C@H](O)[C@H]1CO)OCO3	0.1 µM	0.11 µM	0.2 µM	0.09 µM	1.02 µM	0.8 µM	0.5 µM	0.1 µM	3.12 µM	0.1 µM	0.1 µM	0.3 µM	0.34 µM	0.1 µM	GI50 (M14 [1]): 0.86 µM; GI50 (SK-OV-3 [2]): 0.34 µM; GI50 (A498 [3]): 0.4 µM; GI50 (MCF7 [8]): 0.1 µM; GI50 (DU-145 [5]): 0.47 µM
CCCOC(=O)[C@@H]1[C@H](c2cc(OC)c(OC)c(OC)c2)c2cc3c(cc2[C@H](O)[C@H]1CO)OCO3	1.2 µM	0.56 µM	0.42 µM	0.89 µM	1.4 µM	1.7 µM	> 30 µM	0.4 µM	2.13 µM	1.45 µM	> 30 µM	0.8 µM	0.7 µM	3.2 µM	–
COC(=O)[C@@H]1[C@H](c2cc(OC)c(OC)c(OC)c2)c2cc3c(cc2C(=O)[C@H]1CO)OCO3	7.71 µM	3.62 µM	6.26 µM	3.52 µM	5.71 µM	10.8 µM	29 µM	1.64 µM	1.89 µM	2.24 µM	16.5 µM	4.11 µM	3.71 µM	17.5 µM	–
COc1cc([C@@H]2c3cc4c(cc3[C@H](O)[C@@H](CO)[C@@H]2C(=O)O)OCO4)cc(OC)c1OC	< 0.01 µM	< 0.01 µM	40 µM	50 µM	> 100 µM	55 µM	–	–	–	–	–	–	–	–	–
CCCOC(=O)[C@@H]1C(c2cc(OC)c(OC)c(OC)c2)c2cc3c(cc2[C@@H]2OC(=O)OC[C@@H]12)OCO3 (some centres not stated)	0.9 µM	2 µM	0.5 µM	> 30 µM	0.3 µM	2 µM	–	–	–	–	–	–	–	–	–
COC(=O)[C@@H]1[C@H](c2cc(OC)c(OC)c(OC)c2)c2cc3c(cc2[C@H](O)[C@H]1CO)OCO3	0.01 µM	0.02 µM	0.04 µM	0.02 µM	0.04 µM	0.03 µM	0.06 µM	0.01 µM	0.01 µM	0.01 µM	0.03 µM	0.03 µM	0.02 µM	0.04 µM	GI50 (NCI-H522): 0.01 µM; GI50 (SK-OV-3 [7]): 0.03 µM; GI50 (A498 [9]): 0.03 µM; GI50 (DU-145 [10]): 0.04 µM; GI50 (MCF7 [11]): 0.04 µM; GI50 (M14 [12]): 0.04 µM
CCOC(=O)[C@@H]1[C@H](c2cc(OC)c(OC)c(OC)c2)c2cc3c(cc2C(=O)[C@H]1CO)OCO3	2.22 µM	4.21 µM	4.35 µM	3.36 µM	3.99 µM	5.63 µM	5.45 µM	1.33 µM	1.56 µM	1.7 µM	5.99 µM	3.86 µM	2.07 µM	5.14 µM	–
COc1cc([C@@H]2c3cc4c(cc3[C@@H](O[C@@H]3O[C@@H]5CO[C@@H](C)O[C@H]5[C@H](O)[C@H]3O)[C@H]3COC(=O)[C@H]23)OCO4)cc(OC)c1O [ETOPOSIDE]	18.1 µM	5.62 µM	6.16 µM	15.1 µM	–	3.46 µM	–	0.9 µM	8 µM	< 0.01 µM	2 µM	–	–	–	GI50 (MCF7 [13]): 25 µM
COc1cc([C@@H]2c3cc4c(cc3[C@H](O)[C@H]3COC(=O)[C@H]23)OCO4)cc(OC)c1OC [PODOFILOX]	–	0.01 µM	0.01 µM	0.01 µM	0.02 µM	0.2 µM	–	0.7 µM	0.08 µM	0.07 µM	0.04 µM	0.9 µM	–	0.6 µM	–
